Test results taken from patent US20040229785A1, “Screening methods to identify treatments for autoimmune disease” (priority 2002, published 2004).
Values joined by “and” are separate entries in the source; they are usually repeats but may differ in a detail not shown here. Identical values can stand only once.

Tests used:
[1] = system: PBLs from non-diabetic control subjects; experiment: FACS Annexin V binding/PI uptake in human PBLs cultured with or without TNF-α; type: cell-based
Experimental: (§1) Therefore, Annexin V binding/PI uptake measurements were used to measure specific cellular lineages in the human PBLs based on fluorescence activated cell scanning (FACS) analysis. PBLs were stained with anti-CD3, anti-Annexin V, and anti-PI antibodies immediately after isolation. After 12 or 24 hours in culture in the presence or absence of TNF-α, cells were analyzed by FACS for Annexin V/PI binding to defined lineages. Over the course of these studies several important differences emerged in the behavior of human PBLs compared to NOD splenocytes (Table 1). First, human PBL isolates contained a large amount of cell fragments and debris, both at baseline and after culture. This finding was not evident in the NOD splenocyte preparations. Comparing the responses of non-diabetic C57BL/6 murine splenocytes to non-diabetic humans PBLs, the viability of C57BL/6 splenocytes remained constant during a 24 hour period of culture in vitro, whereas a progressive increase in spontaneous cell death of human PBLs was regularly observed over this interval. […]
The results generated using CD3, CD19, and CD11b positive PBLs isolated from 33 Type I diabetics and from control subjects (see Table 1) support the following conclusions. […] After 12 hours, these cells were stained with Annexin V and PI and analyzed by FACS.

[2] = system: B6 (C57BL/6) splenocytes; experiment: Annexin V/PI flow cytometry of cultured splenocytes with and without TNF-α; type: cell-based, mouse
Experimental: (§2) Flow cytometry can be performed using a Facscalibur flow cytometer (BD Biosciences, San Jose, Calif.). Samples were incubated for 18-24 hours in the absence or presence of TNF-α (20-50 ng/mL), after which apoptotis can be determined by direct detection using FITC-conjugated annexin V and Propidium Iodide (PI) from R&D Systems (TACS Annexin V-FITC Apoptosis Detection Kit; Minneapolis, Minn.). Early apoptotic cells were defined as positive for annexin V only, whereas late apoptotic cells were defined as being positive for both PI and annexin V.
(§3) In order to obtain high viability for those assays using splenocytes, gentle treatment throughout the isolation procedure is important. Optimized results were obtained as follows: a mouse is sacrificed by cervical dislocation and the spleen removed via an abdominal incision. The spleen is then gently inflated with several mLs of RPMI/10% FBS using a 22 gauge needle. Any fluid leaking out of the spleen is collected as it contains splenocytes. A small opening is created on one end of the spleen and the splenic tissue expelled through this opening with a “scraping” motion using blunt tipped forceps. The resulting clumps of tissue are homogenized by repeated gentle pipetting. The crude splenocyte preparation is then filtered through a 40 micron mesh filter.
(§4) The spleen contains a variety of different immune cells. These can be distinguished further into T-cells (mostly CD4 and CD8) and non-T-cells (mostly B-cells and macrophages). Magnetic separation methods were used to sort the splenocytes into T-cell and non-T-cell fractions. For the isolation of T-cells, Miltenyi Biotec's Pan T magnetic bead cocktail were used. This cocktail contains antibodies against CD11b, CD45R, DX5, and Ter-119. As a result, all Non-T cells, i.e. B cells, NK cells, dendritic cells, macrophages, granulocytes, and erythroid cells; are depleted from the sample, leaving only T-cells. For the isolation of non-T-cells, a mixture of magnetic beads directed against CD90 and Ter-119 were used. This depletes all T-cells and erythroid cells, leaving only the non-T cells.
(§5) The difference in sensitivity between B6 and NOD splenocytes to TNF-α was then examined. B6 and NOD splenocytes were plated out in U-bottom shaped 96 well plates at a density of 25,000 cells per well in 100 μL of medium, with and without 50 ng/mL TNF-α added. The cells were cultured for 24 hrs, stained with Annexin V and PI, and analyzed by flow cytometry (FIG. 10).
(§6) After culture at 37° C. for 26 hours, the cell death of NOD vs. B6 T cells and NOD vs. B6 non T cells was quantified by AnnexinV and PI (FIG. 11). Late death is shown for cells obtained from a single NOD and a single B6 mouse.
(§7) Samples obtained from a single NOD and a single B6 mouse were also examined for cell death by PI staining alone (FIG. 12) after culturing at 32° C. for 18 hours.
as §1

[3] = system: NOD splenocytes; experiment: as above; type: cell-based, mouse; conditions: for TNF sensitivity of T cell subpopulation: FIG. 13
Experimental: as §2, §3, §4, §5, §6, §7, §1

[4] = system: PBLs from Type I diabetics; experiment: FACS Annexin V binding/PI uptake in human PBLs cultured with or without TNF-α; type: cell-based; design: increase in Annexin V binding to CD3+ PBLs in response to TNF-α: dose or concentration left out as unconfirmed
Experimental: Therefore, Annexin V binding/PI uptake measurements were used to measure specific cellular lineages in the human PBLs based on fluorescence activated cell scanning (FACS) analysis. PBLs were stained with anti-CD3, anti-Annexin V, and anti-PI antibodies immediately after isolation. After 12 or 24 hours in culture in the presence or absence of TNF-α, cells were analyzed by FACS for Annexin V/PI binding to defined lineages. Over the course of these studies several important differences emerged in the behavior of human PBLs compared to NOD splenocytes (Table 1). First, human PBL isolates contained a large amount of cell fragments and debris, both at baseline and after culture. This finding was not evident in the NOD splenocyte preparations. Comparing the responses of non-diabetic C57BL/6 murine splenocytes to non-diabetic humans PBLs, the viability of C57BL/6 splenocytes remained constant during a 24 hour period of culture in vitro, whereas a progressive increase in spontaneous cell death of human PBLs was regularly observed over this interval. This differential response of cell viability to culture in vitro may possibly reflect an intrinsic fragility of human PBLs and/or the greater rigors of cell isolation required for purification of human PBLs as compared with murine splenocytes. […] Another difference between PBLs from human Type I diabetics and NOD splenocytes is that the evolution of TNF-α-induced apoptosis in NOD splenocytes occurs with a predictable time course that is much more rapid than that seen in PBLs from Type I diabetics. […] By 24 hours, there was little further increase in the fraction of cells binding Annexin V. However, nuclear binding of PI to NOD splenocytes had increased substantially reflecting a further progression of the apoptotic program. By contrast, cell death in response to TNF-α in human CD3 positive-PBLs, when evident, evolved much more slowly. For example, increased Annexin V binding was rarely seen after 12 hours and at 24 hours, increased Annexin V uptake, when present, was generally not accompanied by increased PI uptake.
The results generated using CD3, CD19, and CD11b positive PBLs isolated from 33 Type I diabetics and from control subjects (see Table 1) support the following conclusions. […] In these studies, PBLs were processed in parallel from a Type I diabetic and an age/sex matched control non-diabetic subject. Immediately after isolation, the PBLs were incubated with Annexin V and propidium iodide and subjected to FACS analysis (left column of flow charts; “before incubation”). […] The cells were then incubated in the absence (center panels) or presence (right panels) of TNF-α (20 ng/mL). After 12 hours, these cells were stained with Annexin V and PI and analyzed by FACS.

[5] = system: CD3+ T cells from a non-diabetic control subject; type: cell-based, human
Text: (§8) II. Remove red blood cells and collect lymphocyte subsets:
(§9) 11. Acquire timed and/or absolute count/volume data
(§10) The automated method described herein has also been used for the assay of cell viability in a human patient. Blood samples were obtained from a patient with Type I diabetes and from a non-diabetic control subject. During the assay procedure, a CD3^+ T cell subset was isolated from each (Step 11.12 from the protocol). The cells were then contacted with TNF-α and cell viability was measured and compared to that found in control samples which were not contacted with TNF-α.

[6] = system: CD3+ T cells from a patient with Type I diabetes; type: cell-based, human
Text: as §8, §9, §10

[7] = system: B6 mouse splenocytes (T cells, non-T cells)
Experimental: (§12) Following is an optimized protocol for the automated analysis of cell sensitivity to compounds that induce cell death via apoptosis or necrosis.
(§13) Place on AutoMACS cell sorter for CD-subset separation (magnetic bead separation method or direct RBC lysis)
(§14) Pipette 100 μL cell suspension (25,000 cells) into each 96-well plate well, ×3 for triplicates
(§15) Add 5 μL of reagent (e.g., TNF-α, another induced or cell death, or mixtures containing up to 10 different chemical reagent combinations for the induction of cell death), to each well to be treated, ×3 for triplicates.
(§16) For flow cytometry (analysis), remove 90 μL of re-suspended sample material from each sample well
(§17) Add 90 μl of cell stain solution to each sample flow test tube above to stain cells for identification
(§18) The sensitivity of T cell populations from NOD mice were re-examined using the automated assay described above.
(§19) Non-T cells from NOD and B6 mice were also examined for sensitivity to TNF-α-induced cell death.

[8] = system: NOD mouse splenocytes (T cells, non-T cells)
Experimental: as §12, §13, §14, §15, §16, §17, §18, §19

[9] = system: PBLs from Type I diabetics; experiment: Trypan Blue uptake by human PBLs incubated with TNF-α; type: cell-based; conditions: TNF-α 20 ng/mL, 24 hours, FIG. 14A
Experimental: (§11) In an initial set of assays for characterizing the response of PBLs from human diabetics and control subjects to incubation with TNF-α or other candidate compounds in vitro, uptake of the dye Trypan Blue, a relatively nonspecific measure of cell death, was used. […] However, there appeared to be an inverse correlation between the age-at-onset and the extent of the TNF-α induced-increase in Trypan Blue uptake by the PBLs (FIG. 14C).

[10] = system: PBLs from non-diabetic subjects; experiment: as above; type: cell-based; conditions: TNF-α 20 ng/mL, 24 hours, FIG. 14B
Experimental: as §11

TNF-α
Annexin V staining after culture in the presence of TNF-α ([1]; PBLs of two parallel non-diabetic control subjects, TNF-α 20 ng/mL, 12 hours, without TNF-α 5.0 and 9.0%): 5.5% and 7.5%
After culture with THF-α (Mean % cell death ± SE) ([1]; human random controls, overnight early T-cell death, n printed 3): 8.02 ± 0.85%
cell death of T cells by PI staining alone on exposure to TNF-α ([2]; B6 T cells, 32° C., 18 hours, single mouse, FIG. 12): do not exhibit TNF induced death
late cell death of T cells by AnnexinV and PI on exposure to TNF-α ([2]; B6 T cells, 37° C., 26 hours, single mouse, FIG. 11): increased viability
After culture with THF-α (Mean % cell death ± SE) ([2]; C57BL/6 mouse, overnight early T-cell death, n=7 pairs): 10.2 ± 2.5%
TNF sensitivity of T cell subpopulation ([3]; NOD CD4+ T cells): not TNF sensitive
TNF sensitivity of T cell subpopulation ([3]; NOD CD8+ T cells): greatest TNF sensitivity
cell death of T cells by PI staining alone on exposure to TNF-α ([3]; NOD T cells, 32° C., 18 hours, single mouse, FIG. 12): death of a subpopulation of T cells
late cell death of T cells by AnnexinV and PI on exposure to TNF-α ([3]; NOD T cells, 37° C., 26 hours, single mouse, FIG. 11): further accelerated
After culture with THF-α (Mean % cell death ± SE) ([3]; NOD mouse, overnight early T-cell death, n=5 pairs): 32.9 ± 3.97%
Annexin V binding ([3]; NOD splenocytes, 12-hour incubation with TNF-α): clear increase in Annexin V binding
sensitivity of splenocytes to TNF-α (viability, Annexin V/PI) ([3]; NOD vs B6 control splenocytes, 50 ng/mL TNF-α, 24 hrs, 25,000 cells per well, FIG. 10): much more sensitive
staining by Annexin V+PI+ ([4]; PBLs from a diabetic patient vs matched control, TNF-α 20 ng/mL, 12 hours, FIGS. 15A, 15B): increased significantly and selectively
Annexin V staining after culture in the presence of TNF-α ([4]; PBLs of two Type I diabetic subjects (FIGS. 15A, 15B), TNF-α 20 ng/mL, 12 hours, without TNF-α 6.5% and 6.2%): 11.3% and 13.4%
increase in Annexin V binding to CD3+ PBLs in response to TNF-α ([4]; Type I diabetic vs non-diabetic PBLs, 24 hours, TNF-α): greater to a statistically significant extent
After culture with THF-α (Mean % cell death ± SE) ([4]; human IDDM patients, overnight early T-cell death, n=33 pairs): 8.73 ± 0.96%
Viability (%) [5]: 96%
Death (%) ([5]; Control subject, CD3+ cells, TNF-α +, without TNF-α 5): 4%
Total Cell Count ([5]; Control subject, CD3+ cells, TNF-α +, without TNF-α 2000): 2200
Viability (%) [6]: 93%
Death (%) ([6]; Type I diabetic, CD3+ cells, TNF-α +, without TNF-α 5): 7%
Total Cell Count ([6]; Type I diabetic, CD3+ cells, TNF-α +, without TNF-α 1900): 1900
viability of splenocytes treated with TNF-α [7]: 69.7%
viability change of non-T cells, TNF-α treated vs untreated ([7]; B6 mice non-T cells, n=12, FIG. 18B): 5.0%
change in splenocyte viability on TNF-α treatment (increase) ([7]; control B6 mice, n=17, T cell populations, FIG. 16): 1.0+/−0.5
change in splenocyte viability on TNF-α treatment (decrease) ([8]; NOD diabetic mice, n=17, T cell populations, FIG. 16): −2.7+/−0.9
viability change of non-T cells, TNF-α treated vs untreated ([8]; NOD mice non-T cells, n=12, FIG. 18B): 4.6%
extent of Trypan Blue uptake [9]: further increasing Trypan Blue uptake
extent of Trypan Blue uptake [10]: did not significantly alter
